Source: US20260041774A1 (RepoCeuticals A/S, priority 2017, published 2026)
Where two headings read alike, the source gives them in different places. Values belong to the molecule of their own block, whether it stands above or below them.

Columns and labels:
rat = details: oral; cited from earlier work
[1] = tested on: oxidative damage in certain model systems; details: certain model systems (Oxenkrug 2005); cited from earlier work
[2] = Solubility of melatonin in aqueous solubilizer mixtures (overnight end-over-end rotation, filtration, HPLC); type: physicochemical; details: 20% (w/w) aqueous glycofurol, 25 °C, aqueous with cosolvent or surfactant or cyclodextrin, thermodynamic from solid
Experimental: Peaks were detected by UV absorption at 277 μm wavelength. […] To study the effect of adding DMSO to this medium, a medium consisting of 20% (w/w) glycofurol and 40% (w/w) DMSO in water was also prepared.

[3] = Description: The determination of what constitutes initial amount and final amount shall be made using the same experimental techniques. In the experiments presented below, initial and final amounts of degradation products were determined using HPLC as an exemplary measurement technique.
High pressure liquid chromatography (HPLC) elution profiles obtained from a 100×4.6 mm Phenomenex Kinetex column of XB-C18 silica (5 μm particle size) eluted with a linear gradient of solvent B (acetonitrile containing 0.1% v/v acetic acid) 10% to 50% in solvent A (water containing 0.1% v/v acetic acid) from 0.8 to 7.8 min, returning to 10% B at 8.8 min. Peaks were detected by UV absorption at […] wavelength. Overloading sample sizes were used to facilitate the detection of small amounts of breakdown products. […] (FIG. 1A) or 25° C. (FIG. 1B).
HPLC elution profiles were obtained as described for FIG. 1. […] (FIG. 2A) or 25° C. (FIG. 2B).
HPLC elution profiles were obtained as described for FIG. 1. […] (FIG. 3A) or 25° C. (FIG. 3B).

[4] = cited from earlier work; for solubility of melatonin in DMSO: room temperature (20 or 25° C.)
[5] = melatonin 10 mg/mL in 20% (w/w) aqueous glycofurol, 45 days at 25° C.
[6] = melatonin 10 mg/mL in 20% (w/w) glycofurol, 40% (w/w) DMSO in water, 45 days at 25° C.

Compound: C[S+](C)[O-] [DMSO, dimethyl sulfoxide]
- LD50 (rat): 14500 mg/kg

Compound: CC(=O)NCCc1c[nH]c2ccc(O)cc12 [N-acetylserotonin]
- protective effect against oxidative damage, times as strong as that of melatonin [1]: 5 to 20 times

Compound: CCO [ethanol]
- LD50 (rat): 7060 mg/kg

- solubility [2]: > 10 mg/mL
- melatonin breakdown ([3]; 20% (w/w) glycofurol, 40% (w/w) DMSO in water, 45 days at 25° C.): no evidence of the melatonin breakdown
- melatonin breakdown ([3]; 50% (w/w) DMSO, 45 days at 25° C.): no evidence of the melatonin breakdown
- degradation peaks (8.1, 8.4 and 8.6 min) together, share of the recovered UV-absorbent material ([3]; 45 days, 10 mg/mL): 0.36%
- melatonin peak at 6.0 min ([3]; melatonin 10 mg/mL in 20% (w/w) aqueous glycofurol, 45 days at 5° C.): 5871 absorption units
- additional peak at 8.4 min not seen in the 5° C. sample [3, 5]: 8.314 absorption units
- additional peak at 8.6 min not seen in the 5° C. sample [3, 5]: 5 absorption units
- additional peak at […] not seen in the 5° C. sample [3, 5]: 7.973 absorption units
- melatonin peak at 6.0 min [3, 5]: 5831 absorption units
- melatonin peak at 6.0 min ([3]; melatonin 10 mg/mL in 20% (w/w) glycofurol, 40% (w/w) DMSO in water, 45 days at 5° C.): 6831 absorption units
- additional peaks of UV-absorbent material [3, 6]: no additional peaks
- melatonin peak at 6.0 min [3, 6]: 6851 absorption units
- melatonin peak at 6.0 min ([3]; melatonin 10 mg/mL in 50% (w/w) aqueous DMSO, 45 days at 5° C.): 8771 absorption units
- additional peaks ([3]; melatonin 10 mg/mL in 50% (w/w) aqueous DMSO, 45 days at 5° C. or 25° C.): No additional peaks
- melatonin peak at 6.0 min ([3]; melatonin 10 mg/mL in 50% (w/w) aqueous DMSO, 45 days at 25° C.): 8771 absorption units
- decline in the melatonin concentrations ([3]; solutions 1), 2) and 3), sealed tubes, 25° C., HPLC on days 0, 10, 17, 31 and 45): no significant decline
Compound: COc1ccc2[nH]cc(CCNC(C)=O)c2c1 [melatonin, N-acetyl-5-methoxytryptamine]
- solubility of melatonin in ethanol ([4]; 20° C., EC SCCS/1315/10, 2010): 182 mg/mL
- solubility of melatonin in ethanol/water (40/60 v/v) mixture ([4]; 20° C.): 64 mg/mL
- solubility of melatonin in water ([4]; 20° C.): approximately 2 g/L
- solubility of melatonin in water ([4]; 50° C.): ~5 mg/mL
- solubility of melatonin in DMSO ([4]; source MedChem): ≤ 200 mM
- solubility of melatonin in DMSO ([4]; source abcam): ≤ 100 mM
- solubility of melatonin in DMSO ([4]; source tocris): ≤ 50 mM
